Assay results from US11214565B2, “Compound, compositions, and methods” (Denali Therapeutics Inc., priority 2015, dated 2022).

Target: LRRK2 G2019S enzyme (Homo sapiens (Human), UniProt Q5S007, G2019S)
Experiment: LRRK2 G2019S TR-FRET biochemical kinase assay (LRRKtide substrate)
Conditions: 5 nM LRRK2, 134 μM ATP, 60 minute reaction, 23° C.
How it was run: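 TR-FRET phospho-LRRKtide readout (2 nM antibody, 10 mM EDTA, 60 min) after a 60 min, 23 °C kinase reaction. The reaction used 134 μM ATP and 5 nM enzyme in pH 7.5 Tris/MgCl2/EGTA/DTT buffer, with compound and enzyme-substrate mix preincubated for 20 min beforehand.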

LRRK2 G2019S enzyme, sequence (Q5S007 whole entry G2019S): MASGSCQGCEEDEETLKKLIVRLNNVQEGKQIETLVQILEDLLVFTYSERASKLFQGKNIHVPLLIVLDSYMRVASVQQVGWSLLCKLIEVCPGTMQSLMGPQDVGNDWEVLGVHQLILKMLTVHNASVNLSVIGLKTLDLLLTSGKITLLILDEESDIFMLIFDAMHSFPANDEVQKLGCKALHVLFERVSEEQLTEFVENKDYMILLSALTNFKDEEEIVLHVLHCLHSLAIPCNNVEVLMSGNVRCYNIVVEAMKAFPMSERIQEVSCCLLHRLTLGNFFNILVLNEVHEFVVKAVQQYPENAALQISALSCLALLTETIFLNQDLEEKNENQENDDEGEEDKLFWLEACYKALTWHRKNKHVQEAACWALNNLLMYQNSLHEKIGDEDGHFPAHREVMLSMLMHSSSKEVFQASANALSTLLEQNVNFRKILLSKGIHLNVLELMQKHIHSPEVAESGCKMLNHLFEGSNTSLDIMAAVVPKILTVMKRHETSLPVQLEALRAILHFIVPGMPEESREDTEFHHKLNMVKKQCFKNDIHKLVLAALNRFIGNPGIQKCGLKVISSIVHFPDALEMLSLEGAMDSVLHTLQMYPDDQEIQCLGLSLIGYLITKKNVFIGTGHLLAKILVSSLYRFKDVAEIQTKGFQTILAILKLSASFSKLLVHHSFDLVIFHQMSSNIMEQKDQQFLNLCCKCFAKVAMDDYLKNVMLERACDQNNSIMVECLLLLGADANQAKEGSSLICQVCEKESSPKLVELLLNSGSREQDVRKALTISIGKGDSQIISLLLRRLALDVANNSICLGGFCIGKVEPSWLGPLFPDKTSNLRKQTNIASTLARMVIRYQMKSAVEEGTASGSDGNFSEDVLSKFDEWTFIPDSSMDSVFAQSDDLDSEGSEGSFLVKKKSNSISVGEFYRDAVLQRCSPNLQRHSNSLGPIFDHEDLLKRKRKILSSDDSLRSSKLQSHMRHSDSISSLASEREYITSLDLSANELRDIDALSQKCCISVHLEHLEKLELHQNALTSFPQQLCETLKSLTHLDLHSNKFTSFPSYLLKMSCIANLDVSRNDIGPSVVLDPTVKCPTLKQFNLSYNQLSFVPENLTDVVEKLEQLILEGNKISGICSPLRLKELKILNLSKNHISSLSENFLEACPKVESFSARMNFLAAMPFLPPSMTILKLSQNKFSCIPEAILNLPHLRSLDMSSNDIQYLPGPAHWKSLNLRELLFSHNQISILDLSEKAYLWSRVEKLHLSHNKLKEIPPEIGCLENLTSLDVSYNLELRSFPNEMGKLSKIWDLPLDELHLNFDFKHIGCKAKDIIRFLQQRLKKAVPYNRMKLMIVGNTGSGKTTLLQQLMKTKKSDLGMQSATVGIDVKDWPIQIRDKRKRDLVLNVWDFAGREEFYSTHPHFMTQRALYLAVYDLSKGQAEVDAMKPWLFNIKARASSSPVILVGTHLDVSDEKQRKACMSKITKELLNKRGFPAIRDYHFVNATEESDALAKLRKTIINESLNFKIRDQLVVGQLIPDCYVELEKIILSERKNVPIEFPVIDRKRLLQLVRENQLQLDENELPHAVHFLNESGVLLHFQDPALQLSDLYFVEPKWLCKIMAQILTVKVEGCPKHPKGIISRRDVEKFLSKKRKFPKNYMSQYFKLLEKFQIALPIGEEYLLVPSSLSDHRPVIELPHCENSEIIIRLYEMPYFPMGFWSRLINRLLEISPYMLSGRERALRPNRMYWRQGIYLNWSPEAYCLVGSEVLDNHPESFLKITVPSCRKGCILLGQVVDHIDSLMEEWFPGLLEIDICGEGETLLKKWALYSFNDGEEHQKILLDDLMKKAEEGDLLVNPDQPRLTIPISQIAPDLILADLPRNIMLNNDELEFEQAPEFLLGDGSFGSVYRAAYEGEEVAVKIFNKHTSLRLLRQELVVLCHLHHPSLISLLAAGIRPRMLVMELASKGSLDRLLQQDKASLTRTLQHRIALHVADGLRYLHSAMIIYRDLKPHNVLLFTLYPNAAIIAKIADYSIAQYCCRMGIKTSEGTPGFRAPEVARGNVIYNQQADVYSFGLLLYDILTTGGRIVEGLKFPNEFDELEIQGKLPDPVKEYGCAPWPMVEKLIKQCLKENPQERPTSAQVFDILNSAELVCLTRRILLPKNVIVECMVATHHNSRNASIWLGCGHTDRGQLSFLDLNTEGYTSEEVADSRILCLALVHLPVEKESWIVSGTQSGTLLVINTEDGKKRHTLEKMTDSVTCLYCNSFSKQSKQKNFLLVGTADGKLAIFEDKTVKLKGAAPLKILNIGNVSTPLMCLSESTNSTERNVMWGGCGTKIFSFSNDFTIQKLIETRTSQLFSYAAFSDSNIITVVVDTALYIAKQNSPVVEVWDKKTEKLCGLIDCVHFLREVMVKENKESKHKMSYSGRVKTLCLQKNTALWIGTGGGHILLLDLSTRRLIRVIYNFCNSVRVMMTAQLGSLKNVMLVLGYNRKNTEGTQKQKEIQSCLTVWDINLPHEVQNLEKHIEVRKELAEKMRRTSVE

| SMILES | IC50 (Table C-2) [nM] | IC50 (Table D-4) [nM] |
| --- | --- | --- |
| Cc1nn(C(C)(C)c2ncn(C)n2)cc1Nc1nc(C2CC2)c2c(F)c[nH]c2n1 [Compound C-29] | < 50 |  |
| Cc1nn(C(CF)CF)cc1Nc1nc(C2CC2)c2cc[nH]c2n1 [Compound C-30] | < 50 |  |
| Cc1c(Nc2nc(C3CC3)c3cc[nH]c3n2)cnn1C(CF)CF [Compound C-31] | < 50 |  |
| Cc1c(Nc2nc(C3CC3)c3c(Cl)c[nH]c3n2)cnn1C(CF)CF [Compound C-32] | < 50 |  |
| Cc1nc2c(C3CC3)nc(Nc3cnn(C)c3C)nc2[nH]1 [Compound C-33] | > 100 |  |
| Cc1nc2c(C3CC3)nc(Nc3cn(C)nc3C)nc2[nH]1 [Compound C-34] | > 100 |  |
| Cc1cn(C)nc1Nc1cc(C2CC2)c2nc[nH]c2n1 [Compound C-35] | > 100 |  |
| Cc1nn(C2(C)CC2)cc1Nc1nc(C2CC2)c2nc[nH]c2n1 [Compound C-36] | < 50 |  |
| Cc1nn(C(C)(C)c2ccn(C)n2)cc1Nc1nc(C2CC2)c2nc[nH]c2n1 [Compound C-37] | < 50 |  |
| Clc1c(Nc2nc(C3CC3)c3nc[nH]c3n2)cnn1CC1CC1 [Compound C-38] | < 50 |  |
| Cc1c(Nc2nc(C3CC3)c3c(C#N)c[nH]c3n2)cnn1C(F)F [Compound C-39] | < 50 |  |
| Cc1nn(C(F)F)cc1Nc1nc(C2CC2)c2c(C#N)c[nH]c2n1 [Compound C-40] | < 50 |  |
| Cc1nn(C(C)(C)C#N)cc1Nc1nc(C2CC2)c2c(C3CC3)c[nH]c2n1 [Compound C-41] | < 50 |  |
| Cc1nn(C(C)(C)C#N)cc1Nc1nc(C2CC2)c2c(C(F)(F)F)c[nH]c2n1 [Compound C-42] | < 50 |  |
| Cc1c(Nc2nc(C3CC3)c3c(C#N)c[nH]c3n2)cnn1C1CC2CC2C1 (centres unmarked) [Compound C-43] | < 50 |  |
| Cc1nn(C2CC3CC3C2)cc1Nc1nc(C2CC2)c2c(C#N)c[nH]c2n1 (centres unmarked) [Compound C-44] | < 50 |  |
| Cc1c(Nc2nc(C3CC3)c3nc[nH]c3n2)cnn1C1CC2CC2C1 (centres unmarked) [Compound C-45] | < 50 |  |
| Cc1nn(C2CC3CC3C2)cc1Nc1nc(C2CC2)c2nc[nH]c2n1 (centres unmarked) [Compound C-46] | < 50 |  |
| Cc1c(Nc2nc(C3CC3)c3c(C#N)c[nH]c3n2)cnn1CCOC(F)F [Compound C-47] | < 50 |  |
| Cc1c(Nc2nc(C3CC3)c3nc[nH]c3n2)cnn1CCOC(F)F [Compound C-48] | < 50 |  |
| Cc1c(Nc2nc(C3CC3)c3nc[nH]c3n2)cnn1C1CC1 [Compound C-49] | < 50 |  |
| Cc1nn(C2CC2)cc1Nc1nc(C2CC2)c2nc[nH]c2n1 [Compound C-50] | < 50 |  |
| Cc1nn(CC2CC2)cc1Nc1nc(C2CC2)c2nc[nH]c2n1 [Compound C-52] | < 50 |  |
| Cc1c(Nc2cc(C3CC3)c3c(C#N)c[nH]c3n2)cnn1C1CC1 [Compound C-53] | < 50 |  |
| Cc1nn(C2CC2)cc1Nc1cc(C2CC2)c2c(C#N)c[nH]c2n1 [Compound C-54] | < 50 |  |
| Cc1nn(C(CF)CF)cc1Nc1nc(C2CC2)c2c(Cl)c[nH]c2n1 [Compound C-55] | < 50 |  |

Other lines, results leading:

| IC50 (Table C-2) [nM] | IC50 (Table D-4) [nM] | SMILES |
| --- | --- | --- |
|  | > 60 | CNc1nc(Nc2cn(CC3(CC#N)CC3)nc2C)ncc1C(F)(F)F [Compound D-1, 2-(1-((3-methyl-4-((4-(methylamino)-5-(trifluoromethyl)pyrimidin-2-yl)amino)-1H-pyrazol-1-yl)methyl)cyclopropyl)acetonitrile] |
|  | < 30 | CNc1nc(Nc2cnn(C3CCn4ccnc43)c2C)ncc1C(F)(F)F [Compound D-2, N2-[1-(6,7-dihydro-5H-pyrrolo[1,2-a]imidazol-7-yl)-5-methyl-pyrazol-4-yl]-N4-methyl-5-(trifluoromethyl)pyrimidine-2,4-diamine] |
|  | > 60 | CNc1nc(Nc2cn(CC3(Cn4cncn4)CC3)nc2C)ncc1C(F)(F)F [Compound D-5, N2-(1-((1-((1H-1,2,4-triazol-1-yl)methyl)cyclopropyl)methyl)-3-methyl-1H-pyrazol-4-yl)-N4-methyl-5-(trifluoromethyl)pyrimidine-2,4-diamine] |
|  | < 30 | CNc1nc(Nc2cnn(CC3(Cn4cncn4)CC3)c2C)ncc1C(F)(F)F [Compound D-6, N2-(1-((1-((1H-1,2,4-triazol-1-yl)methyl)cyclopropyl)methyl)-5-methyl-1H-pyrazol-4-yl)-N4-methyl-5-(trifluoromethyl)pyrimidine-2,4-diamine] |
|  | < 30 | CNc1nc(Nc2cnn(C3CCc4nnc(C)n4C3)c2C)ncc1C(F)(F)F [Compound D-7, N4-methyl-N2-[5-methyl-1-(3-methyl-5,6,7,8-tetrahydro-[1,2,4]triazolo[4,3-a]pyridin-6-yl)pyrazol-4-yl]-5-(trifluoromethyl)pyrimidine-2,4-diamine] |
|  | > 60 | CNc1nc(Nc2cn(C3CCc4nnc(C)n4C3)nc2C)ncc1C(F)(F)F [Compound D-8, N4-methyl-N2-[3-methyl-1-(3-methyl-5,6,7,8-tetrahydro-[1,2,4]triazolo[4,3-a]pyridin-6-yl)pyrazol-4-yl]-5-(trifluoromethyl)pyrimidine-2,4-diamine] |
|  | < 30 | CNc1nc(Nc2cnn(CCOC(F)F)c2C)ncc1C(F)(F)F [Compound D-9, N2-[1-[2-(difluoromethoxy)ethyl]-5-methyl-pyrazol-4-yl]-N4-methyl-5-(trifluoromethyl)pyrimidine-2,4-diamine] |
|  | 30 to 60 | CNc1nc(Nc2cn(CCOC(F)F)nc2C)ncc1C(F)(F)F [Compound D-10, N2-[1-[2-(difluoromethoxy)ethyl]-3-methyl-pyrazol-4-yl]-N4-methyl-5-(trifluoromethyl)pyrimidine-2,4-diamine] |
|  | < 30 | CNc1nc(Nc2cnn(CCOC(F)F)c2Cl)ncc1C(F)(F)F [Compound D-11, N2-[5-chloro-1-[2-(difluoromethoxy)ethyl]pyrazol-4-yl]-N4-methyl-5-(trifluoromethyl)pyrimidine-2,4-diamine] |
|  | < 30 | CNc1nc(Nc2cnn(CC3(COC)CC3)c2Cl)ncc1C(F)(F)F [Compound D-12, N2-[5-chloro-1-[[1-(methoxymethyl)cyclopropyl]methyl]pyrazol-4-yl]-N4-methyl-5-(trifluoromethyl)pyrimidine-2,4-diamine] |
|  | < 30 | CNc1nc(Nc2cn(C(F)(F)C#N)nc2C)ncc1C(F)(F)F [Compound D-13, 2,2-difluoro-2-[3-methyl-4-[[4-(methylamino)-5-(trifluoromethyl)pyrimidin-2-yl]amino]pyrazol-1-yl]acetonitrile] |
|  | < 30 | CNc1nc(Nc2cn(C(F)(F)C(N)=O)nc2C)ncc1C(F)(F)F [Compound D-14, 2,2-difluoro-2-[3-methyl-4-[[4-(methylamino)-5-(trifluoromethyl)pyrimidin-2-yl]amino]pyrazol-1-yl]acetamide] |
|  | < 30 | CCNc1nc(Nc2cnn(CCOC(F)F)c2C)ncc1C(F)(F)F [Compound D-15, N2-[1-[2-(difluoromethoxy)ethyl]-5-methyl-pyrazol-4-yl]-N4-ethyl-5-(trifluoromethyl)pyrimidine-2,4-diamine] |
|  | < 30 | CCNc1nc(Nc2cn(CCOC(F)F)nc2C)ncc1C(F)(F)F [Compound D-16, N2-[1-[2-(difluoromethoxy)ethyl]-3-methyl-pyrazol-4-yl]-N4-ethyl-5-(trifluoromethyl)pyrimidine-2,4-diamine] |
|  | < 30 | CNc1nc(Nc2cnn(CC(C)OC(F)F)c2C)ncc1C(F)(F)F [Compound D-17] |
|  | > 60 | CNc1nc(Nc2cn(CC(C)OC(F)F)nc2C)ncc1C(F)(F)F [Compound D-18] |
|  | < 30 | CNc1nc(Nc2cnn(C[C@@H](C)OC(F)F)c2C)ncc1C(F)(F)F [Compound D-19, N2-[1-[(2R)-2-(difluoromethoxy)propyl]-5-methyl-pyrazol-4-yl]-N4-methyl-5-(trifluoromethyl)pyrimidine-2,4-diamine] |
|  | > 60 | CNc1nc(Nc2cn(C[C@@H](C)OC(F)F)nc2C)ncc1C(F)(F)F [Compound D-20, N2-[1-[(2R)-2-(difluoromethoxy)propyl]-3-methyl-pyrazol-4-yl]-N4-methyl-5-(trifluoromethyl)pyrimidine-2,4-diamine] |
|  | 30 to 60 | CNc1nc(Nc2cn(C(C)COC(F)F)nc2C)ncc1C(F)(F)F [Compound D-21, N2-[1-[2-(difluoromethoxy)-1-methyl-ethyl]-3-methyl-pyrazol-4-yl]-N4-methyl-5-(trifluoromethyl)pyrimidine-2,4-diamine] |
|  | < 30 | CNc1nc(Nc2cnn([C@H]3C[C@H](OC(F)F)C3)c2C)ncc1C(F)(F)F [Compound D-25, trans-N2-[1-[3-(difluoromethoxy)cyclobutyl]-5-methyl-pyrazol-4-yl]-N4-methyl-5-(trifluoromethyl)pyrimidine-2,4-diamine] |
|  | < 30 | CNc1nc(Nc2cn([C@H]3C[C@H](OC(F)F)C3)nc2C)ncc1C(F)(F)F [Compound D-26, trans-N2-[1-[3-(difluoromethoxy)cyclobutyl]-3-methyl-pyrazol-4-yl]-N4-methyl-5-(trifluoromethyl)pyrimidine-2,4-diamine] |
|  | < 30 | CNc1nc(Nc2cn([C@H]3C[C@@H](n4cccn4)C3)nc2C)ncc1C(F)(F)F [Compound D-27, cis-N4-methyl-N2-[3-methyl-1-(3-pyrazol-1-ylcyclobutyl)pyrazol-4-yl]-5-(trifluoromethyl)pyrimidine-2,4-diamine] |
|  | < 30 | CNc1nc(Nc2cn([C@H]3C[C@@H](S(C)(=O)=O)C3)nc2C)ncc1C(F)(F)F [Compound D-28, cis-N4-methyl-N2-[3-methyl-1-(3-methylsulfonylcyclobutyl)pyrazol-4-yl]-5-(trifluoromethyl)pyrimidine-2,4-diamine] |
|  | < 30 | CNc1nc(Nc2cnn([C@H]3C[C@H](CC#N)C3)c2C)ncc1C(F)(F)F [Compound D-29, trans-2-[3-[4-[[5-(difluoromethyl-fluoranyl)-4-(methylamino)pyrimidin-2-yl]amino]-5-methyl-pyrazol-1-yl]cyclobutyl]acetonitrile] |
